Tests used:
32D.3 cells = experiment: Analysis of apoptosis (cytochrome c release immunoblot, TUNEL); assay type: cell-based, murine; details: 5 μM for 1 hour
Protocol: Detection of DNA fragmentation in apoptotic cells by the TUNEL assay and immunoblot analyses of cytochrome c release were performed as described previously.
Once distributed into microsomal membranes, pivarubicin triggered rapid, mitochondrial-dependent apoptosis that was independent of cell cycle arrest. Marked release of cytochrome c into the cytosol as an indicator of mitochondrial depolarization and dysfunction is detected within 5 hours of drug treatment, while DNA fragmentation, as detected by TUNEL staining, is abundant by 6 hours.
In a study of Cytochrome c (Cyt C) release by pivarubicin (PIV) and control (C), 32D.3 cells were exposed to 5 μM pivarubicin for 1 hour, then incubated in drug-free medium for an additional 4 hours. Cells were then fractionated to isolate the cytosolic fraction, subjected to immunoblotting and treated with anti-cytochrome c monoclonal antibody (1:250) for 2 hours, followed by a 1-hour treatment with 1:1000 dilution of horseradish peroxidase-conjugated goat anti-mouse second antibody as described previously. Proteins were detected by chemiluminescence (FIG. 3A). […] Individual fields of cells were detected for both DNA 3′-end labeling (green: grayscale image in FIG. 3D) or total cellular DNA staining by propidium iodide (red: grayscale images in FIGS. 3C and 3E). […]

[1] = system: HL-60 human promyelocytic leukemia cells transfected with Bcl-XL; experiment: Cytotoxicity in Bcl-XL transfected HL-60 cells; assay type: cell-based; details: 5 μM for 1 h, 72 h drug-free
Protocol: (§1) For the results shown in FIG. 5A, LNCaP cells transfected with Bcl-2 expression vector were assessed for doxorubicin or pivarubicin cytotoxicity, compared to cells transfected with empty vectors. Cells were exposed to 5 μM drug for 1 h, washed, and further incubated for 72 h in drug-free medium. Viability was determined by the MTT assay. For the results shown in FIG. 5B, pivarubicin cytotoxicity in HL-60 cells transfected with Bcr-Abl or Bcl-XL expression vectors were assessed for doxorubicin or pivarubicin cytotoxicity and compared as described for FIG. 5A.

[2] = system: J774.2 murine macrophage-like cells; experiment: Drug biotransformation analysis (HPLC of intracellular drug) in J774.2 cells; assay type: in vitro ADME
From the text: (§2) Intracellular drug was extracted and analyzed by fluorescence HPLC as described previously.

[3] = system: 293 embryonic human kidney cells; experiment: Drug biotransformation analysis (HPLC of intracellular drug) in 293 cells; assay type: in vitro ADME
From the text: as §2

[4] = system: LNCaP human prostate cancer cells transfected with Bcl-2; experiment: MTT cytotoxicity in Bcl-2 transfected LNCaP cells; assay type: cell-based; details: 5 μM for 1 h, 72 h drug-free
Protocol: as §1

COc1cccc2c1C(=O)c1c(O)c3c(c(O)c1C2=O)C[C@@](O)(C(=O)COC(=O)C(C)(C)C)C[C@@H]3O[C@H]1C[C@H](NCc2ccccc2)[C@H](O)[C@H](C)O1 [Pivarubicin, N-Benzyladriamycin-14-pivalate]
time to marked release of cytochrome c into the cytosol (32D.3 cells; then drug-free medium): ≤ 5 h
DNA fragmentation detected by TUNEL staining (32D.3 cells; by 6 hours): abundant
effect of Bcl-XL overexpression on rate of drug-induced apoptosis [1]: do not impede
% Parent Compound ([2]; J774.2, 1 hr, 1 μM drug, 37° C.): 90%
% Parent Compound ([2]; J774.2, 8 hr (1 hr drug + 7 hours drug-free medium)): 90%
% Parent Compound ([3]; 293, 1 hr, 1 μM drug, 37° C.): 98%
% Parent Compound ([3]; 293, 8 hr (1 hr drug + 7 hours drug-free medium)): 94%
effect of Bcl-2 overexpression on rate of drug-induced apoptosis [4]: do not impede

Source: US11666589B2, “Pivarubicin and benzarubicin compositions” (Paradox Pharmaceuticals, Inc., priority 2020, dated 2023)
